PubChem BioAssay AID1963435 (Molecular Pharmacology Branch, DTP, NCI, 2024)

Tested on: PANC-1 complex spheroid growth, percent test/control
Assay: Anticancer human tumor PANC-1 cell line growth inhibition [Asc];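 note: spheroids exposed to agents for 7 days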;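 for viability, T/C: percent viability relative to DMSO vehicle wells taken as 100%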
Conditions: for IC50: curve of first compound; for viability, T/C: stronger effect = lower value
Protocol: Multicellular complex tumor spheroid response to apoptosis pathway targeting inhibitors Alrizomadlin, Pelcitoclax, and Dasminapant in combination with a variety of drugs and investigational agents in selected tumor cell lines
The MDM2 inhibitor alrizomadlin, the Bcl-2/Bcl-xL inhibitor pelcitoclax, and the IAPs inhibitor dasminapant were evaluated both individually and in combination with standard of care and investigational anticancer small molecules within a complex spheroid model of solid tumors. . Complex spheroids include a stromal component modeled by human endothelial cells (HUVEC) and fibroblasts modeled by human mesenchymal stem cells (MSCs). The concentration ranges selected for each drug and investigational agent were based upon clinically achievable concentrations if the clinical Cmax of the agent was known.
Compounds. The drugs and investigational agents: alrizomadlin (APG-115; NSC831270), pelcitoclax (APG-1252; NSC835773), dasminapant (APG-1387;NSC834197), TAK-243 (NSC785004), copanlisib (NSC809693), olaparib (NSC753686), talazoparib (NSC767125), cobimetinib (NSC 768068), eltanexor (KPT-8602, NSC 794443), abemaciclib (NSC 768073), sotorasib (NSC818433), adagrasib (NSC 831453), MRTX-1133 (NSC 836407), Iadademestat (ORY1001, NSC 806812), and RMC-4630 (NSC839698), were obtained from the NCI Developmental Therapeutics Program Chemical Repository. The FDA-approved anticancer drug set is available from the Developmental Therapeutics Program at https://dtp.cancer.gov/organization/dscb/obtaining/available plates.htm. […] The stock solutions were prepared in dimethyl sulfoxide (DMSO, Sigma-Aldrich, St. Louis, MO, cat. D2650) at 800-fold the tested concentration and stored at -70 degrees C prior to their use. All drugs and investigational agents were tested over a range starting from a high concentration at or near the clinical Cmax and decreasing in half-log increments. If the clinical Cmax for an agent had not been determined, the highest concentration tested was 10 microM.
The patient-derived cancer (PDC) cell lines include five colon adenocarcinomas: 186277-243-T-J2-PDC, 616215-338-R-J1-PDC, 439559-082-T-J2-PDC, 463943-066-T-J2-PDC, and 519858-162-T-J1-PDC; three pancreatic carcinomas: 323965-272-R-J2-PDC, 521955-158-R6-J3-PDC, and 521955-158-R2-J5-PDC; two uterine sarcomas: 327498-152-R-J2-PDC and 993429-296-R-J1-PDC; two rhabdomyosarcomas: 755483-174-R-J1-PDC and 772245-204-R-J1-PDC; two soft tissue sarcomas: 126254-015-R-J1-PDC and 494315-158-R-J1-PDC; two malignant fibrous histiocytomas: 317291-083-R-J1-PDC and 596521-263-R-J1-PDC; two breast carcinomas: 171881-019-R-J1-PDC and 885512-296-R-J2-PDC; and one ovarian carcinoma: 6556581-035-R-J-PDC were obtained from the NCI PDMR, (https://pdmr.cancer.gov). The established cell lines HSSY-2 synovial sarcoma (RRID:CVCL 8719), SYO-1 synovial sarcoma (RRID:CVCL_7146), MPNST malignant peripheral neural sheath tumor were obtained from the Sloan Kettering Institute. The following established cell lines were purchased from the American Type Culture Collection (ATCC, Manassas, VA), Sor the received from the NCI repository:, PANC-1 pancreatic carcinoma (CRL-1469, RRID:CVCL_0480), OVCAR-5 ovarian carcinoma (RRID:CVCL_1628), OVCAR-8 ovarian carcinoma (RRID:CVCL_1629), , MCF-7 breast carcinoma (CRL-12584, RRID:CVCL_0031), MDA-MB-231 breast carcinoma (CRL-12532, RRID:CVCL_0062), NCI-H1876 small cell lung carcinoma (CRL-5902, RRID:CVCL_1503), NCI-H510A small cell lung carcinoma (HTB-184, RRID:CVCL_1565), NCI-H1417 (CRL-5869, RRID:CVCL_1469), and NCI-H196 small cell lung carcinoma (CRL-5823, RRID:CVCL_1509). Dr. Peter Houghton (Greehey Children's Cancer Research Institute, University of Texas Health Science Center, San Antonio, TX) provided Rh-18 rhabdomyosarcoma (RRID:CVCL_1659). Pooled donor human umbilical vein endothelial cells (HUVEC, Lonza, cat. CC-2519) and human mesenchymal stem cells (hMSC, Lonza, cat. PT-2501) were purchased from Lonza (Walkersville, MD).
Cell Culture. […]

**Q.** For `O=C(c1cc(Cc2n[nH]c(=O)c3ccccc23)ccc1F)N1CCN(C(=O)C2CC2)CC1` + CCN1C(C(=O)NC23CCC(C(=O)O)(CC2)CC3)C(c2cccc(Cl)c2F)C2(C(=O)Nc3cc(Cl)ccc32)C12CCCCC2, which IC50 (second compound 0.00949 µM) is on record?
**A.** Its IC50 is greater than 10 µM.

**Q.** What about the IC50 (second compound 0.03 µM) of the same compound?
**A.** The IC50 was greater than 10 µM.

**Q.** What about the IC50 (second compound 0.0949 µM) of the same compound?
**A.** Its IC50 is greater than 10 µM.

**Q.** And the IC50 (second compound 0.3 µM)?
**A.** Its IC50 is greater than 10 µM.

**Q.** And the IC50 (second compound 0.949 µM)?
**A.** The IC50 was greater than 10 µM.

**Q.** And the IC50 (second compound 3 µM)?
**A.** The IC50 was greater than 10 µM.

**Q.** What about the viability, T/C (second compound 0.00949 µM, first compound 0.0316 µM) of the same compound?
**A.** The viability, T/C was 88.1%.

**Q.** And the viability, T/C (second compound 0.00949 µM, first compound 0.1 µM)?
**A.** The viability, T/C was 93.6%.

**Q.** And the viability, T/C (second compound 0.00949 µM, first compound 0.316 µM)?
**A.** Its viability, T/C is 96.2%.

**Q.** What about the viability, T/C (second compound 0.00949 µM, first compound 1 µM) of the same compound?
**A.** Its viability, T/C is 93.6%.

**Q.** And the viability, T/C (second compound 0.00949 µM, first compound 3.16 µM)?
**A.** Its viability, T/C is 114%.

**Q.** What about the viability, T/C (second compound 0.00949 µM, first compound 10 µM) of the same compound?
**A.** Its viability, T/C is 104%.

**Q.** And the viability, T/C (second compound 0.03 µM, first compound 0.0316 µM)?
**A.** The viability, T/C was 103%.

**Q.** What about the viability, T/C (second compound 0.03 µM, first compound 0.1 µM) of the same compound?
**A.** Its viability, T/C is 98.7%.

**Q.** What about the viability, T/C (second compound 0.03 µM, first compound 0.316 µM) of the same compound?
**A.** Its viability, T/C is 102%.

**Q.** And the viability, T/C (second compound 0.03 µM, first compound 1 µM)?
**A.** Its viability, T/C is 99.4%.

**Q.** And the viability, T/C (second compound 0.03 µM, first compound 3.16 µM)?
**A.** The viability, T/C was 102%.

**Q.** What about the viability, T/C (second compound 0.03 µM, first compound 10 µM) of the same compound?
**A.** The viability, T/C was 97.2%.

**Q.** And the viability, T/C (second compound 0.0949 µM, first compound 0.0316 µM)?
**A.** The viability, T/C was 100%.

**Q.** And the viability, T/C (second compound 0.0949 µM, first compound 0.1 µM)?
**A.** The viability, T/C was 94.9%.

**Q.** What about the viability, T/C (second compound 0.0949 µM, first compound 0.316 µM) of the same compound?
**A.** The viability, T/C was 99.5%.

**Q.** What about the viability, T/C (second compound 0.0949 µM, first compound 1 µM) of the same compound?
**A.** The viability, T/C was 104%.

**Q.** What about the viability, T/C (second compound 0.0949 µM, first compound 3.16 µM) of the same compound?
**A.** Its viability, T/C is 102%.

**Q.** And the viability, T/C (second compound 0.0949 µM, first compound 10 µM)?
**A.** Its viability, T/C is 93.9%.

**Q.** What about the viability, T/C (second compound 0.3 µM, first compound 0.0316 µM) of the same compound?
**A.** Its viability, T/C is 104%.

**Q.** What about the viability, T/C (second compound 0.3 µM, first compound 0.1 µM) of the same compound?
**A.** Its viability, T/C is 97.9%.

**Q.** What about the viability, T/C (second compound 0.3 µM, first compound 0.316 µM) of the same compound?
**A.** Its viability, T/C is 111%.

**Q.** What about the viability, T/C (second compound 0.3 µM, first compound 1 µM) of the same compound?
**A.** Its viability, T/C is 103%.

**Q.** And the viability, T/C (second compound 0.3 µM, first compound 3.16 µM)?
**A.** The viability, T/C was 105%.

**Q.** What about the viability, T/C (second compound 0.3 µM, first compound 10 µM) of the same compound?
**A.** Its viability, T/C is 93.2%.

**Q.** And the viability, T/C (second compound 0.949 µM, first compound 0.0316 µM)?
**A.** Its viability, T/C is 101%.

**Q.** And the viability, T/C (second compound 0.949 µM, first compound 0.1 µM)?
**A.** The viability, T/C was 103%.

**Q.** And the viability, T/C (second compound 0.949 µM, first compound 0.316 µM)?
**A.** The viability, T/C was 110%.

**Q.** And the viability, T/C (second compound 0.949 µM, first compound 1 µM)?
**A.** Its viability, T/C is 102%.

**Q.** And the viability, T/C (second compound 0.949 µM, first compound 3.16 µM)?
**A.** Its viability, T/C is 111%.

**Q.** What about the viability, T/C (second compound 0.949 µM, first compound 10 µM) of the same compound?
**A.** The viability, T/C was 101%.

**Q.** What about the viability, T/C (second compound 3 µM, first compound 0.0316 µM) of the same compound?
**A.** Its viability, T/C is 116%.

**Q.** And the viability, T/C (second compound 3 µM, first compound 0.1 µM)?
**A.** Its viability, T/C is 117%.

**Q.** What about the viability, T/C (second compound 3 µM, first compound 0.316 µM) of the same compound?
**A.** Its viability, T/C is 107%.

**Q.** What about the viability, T/C (second compound 3 µM, first compound 1 µM) of the same compound?
**A.** The viability, T/C was 126%.

**Q.** What about the viability, T/C (second compound 3 µM, first compound 3.16 µM) of the same compound?
**A.** The viability, T/C was 121%.

**Q.** What about the viability, T/C (second compound 3 µM, first compound 10 µM) of the same compound?
**A.** Its viability, T/C is 114%.
